The values below come from US5744492A, “Method for inhibiting angiogenesis” (United States of America, priority 1994, dated 1998).

The structures appear in SMILES notation.

Test [1] deals with HUVECs. The test is described as follows: HUVEC proliferation (crystal violet), 10% serum with ECGS. It counts as cell-based, human. Conditions: for IC50: Homo sapiens, HUVEC, 10% serum with ECGS, n=3. The protocol:
(§1) Human umbilical vein endothelial cells (H 930) were generously supplied by Dr. Tom Maciag, American Red Cross (Gaithersburg, Md., USA) and were used between passages 9 and 14 to avoid senescence. HUVECs were grown on fibronectin-coated tissue culture plastic (200 μg/150 mm dish) in complete medium (Medium 199 (M-199) containing 5 U/mL preservative-free heparin, 25.5 μg/mL ECGS, 10% fetal bovine serum and 100 U/mL penicillin, 100 μg/mL streptomycin, and 0.25 μg/mL fungizone).
The effect of compound 1 on HUVEC proliferation was examined over a 5 day period of culture. Cell monolayers were incubated with increasing concentrations of compound 1 and evaluated incrementally for growth inhibition.
Growth inhibition of HUVECs by compound 1 was measured by crystal violet nuclear stain. Briefly, 50,000 cells were seeded per well in 24 well plates using complete medium in the presence of increasing concentrations of compound 1 (0.01-10 μM) or DMS0 vehicle control (0.1%) and cultures were incubated for 24-120 hours. After incubation, cells were washed carefully with Dulbecco's phosphate-buffered saline (DPBS), fixed and stained with 0.5% crystal violet in 20% methanol. Excess stain was removed with water, the cell monolayers were air-dried, and then bound stain was eluted with a 1:1 solution of 0.1N sodium citrate (pH 4.2): 100% ethanol. Optical density of the eluted samples was determined at 540 nm and the results were expressed as percent of DMSO control cell growth. Data are expressed as percentage of control value and are presented as mean±SEM (n=3).

The subject of test [2] is MMP-2. Description: Northern blot analysis of MMP-2 expression in HUVECs. It counts as cell-based, human. Conditions: 24 hr; for inhibition at 10 µM: Homo sapiens, HUVEC. As to the method: as §1
HUVECs were grown to confluence as described. Fresh complete medium with test compounds was added to confluent cells for an additional 24 hr incubation. bFGF (10 ng/mL), and/or compound 1 (10 μM) or DMSO control (0.1%) were added as indicated below. Total RNA was isolated by the guanidine isothiocyanate/CsCl method. Aliquots of RNA (7.5 μg) were separated on 1% agarose/formaldehyde gels, passively transferred to GeneScreen Plus membrane in 20X SSC, then cross-linked with ultraviolet light. Blots were prewashed for 1 hr at 42° C. in 1M NaCl, 10 mM Tris, 1 mM EDTA, 0.1% SDS and then hybridized overnight at 42° C. with a formamide-containing buffer (hybridization buffer final: 50% formamide, 4X SSC, 10 mM Tris pH 7.5, IX Denhardt solution, 0.2% SDS, 125 μg/ml salmon sperm DNA) with a random-primed 300 bp insert for MMP-2 (gift of Dr. William Stetler-Stevenson, Laboratory of Pathology, NCI). Blots were washed under stringent conditions then exposed to film. After removal of MMP-2 probe, blots were rehybridized with β-actin probe for quantitation of the RNA load. Results were quantitated by densitometric evaluation of the autoradiographs.
Lane 1 corresponds to the mRNA from HUVECs treated with DMSO (control). Lanes 2-4 show the mRNA isolated from HUVECs treated with compound 1 (10 μM) alone, compound 1 (10 μM) and bFGF (10 ng/mL), bFGF (10 ng/mL) alone, respectively.

Test [3] relates to MMP-2. Description: Gelatin zymography of HUVEC conditioned medium, bFGF-stimulated proMMP-2 and its activated form. In kind it is cell-based. The note with it: Homo sapiens, bFGF 10 ng/mL for final 24 hr, read-out: inhibition of bFGF-stimulated synthesis of proMMP-2 and its activated form. As to the method:
as §1
Gelatin zymography was carried out as described in Brown, et al., Cancer Research 50:6184-6191 (1990). HUVECs were seeded at 1.2×10^5 /cm^2 in 25 cm^2 fibronectin-coated tissue culture flasks in complete medium containing increasing concentrations of compound 1 (0.1-10 μM) or DMSO vehicle control. After 18 hr of culture, the complete medium was removed and the cells were washed once with serum-free M-199 supplemented with 5 μg/mL bovine insulin, 5 μg/mL human transferrin and 5 ng/mL sodium selenite (ITS). A further 24 hr incubation was carried out with 3 mL of fresh ITS-containing M-199 and varying concentrations of compound 1 (0.1-10 μM) or DMSO vehicle control (0.1%). This conditioned medium was harvested and spun free of cells.
See, Rifkin, et al., J. Cell Biol. 109:1-6 (1989). […]

The subject of test [4] is HUVECs. Description: bFGF-stimulated HUVEC growth in low serum (1% FCS), crystal violet. It counts as cell-based. The note with it: Homo sapiens, bFGF 10 ng/ml. As to the method: as §1
Growth inhibition of HUVECs by compound 1 was measured by crystal violet nuclear stain. Briefly, 50,000 cells were seeded per well in 24 well plates using complete medium in the presence of increasing concentrations of compound 1 (0.01-10 μM) or DMS0 vehicle control (0.1%) and cultures were incubated for 24-120 hours. […] Optical density of the eluted samples was determined at 540 nm and the results were expressed as percent of DMSO control cell growth. Data are expressed as percentage of control value and are presented as mean±SEM (n=3).
To evaluate the effect of bFGF on HUVECs growth, cells were plated in low serum medium (1% FCS) in the presence of 10 ng/ml of bFGF and increasing concentrations of compound 1. At the indicated time, cells were fixed, stained, and quantitated as described above.

The mark [5] stands for this setting: bFGF 10 ng/mL + Compound 1 10 μM.

As for `NC(=O)c1nnn(Cc2cc(Cl)c(C(=O)c3ccc(Cl)cc3)c(Cl)c2)c1N` [Compound 1, 5-amino-1-(4-(4-chlorobenzoyl)-3,5-dichlorobenzyl)1,2,3-triazole-4-carboxamide], in the test with HUVECs [1] (0.01-10 μM, 24, 72 and 120 hrs), the “inhibition of endothelial cell proliferation (in words)” value was “dose-dependent but not time-dependent inhibition”. Also, the concentration for half-maximal inhibition (IC50) with HUVECs [1] (24 h, 1 day of culture) came to 1310 ± 30 nM; with HUVECs [1] (72 h, 3 days of culture), 2140 ± 30 nM; in the test on HUVECs [1] (120 h, 5 days of culture), 2080 ± 10 nM. Besides, the “Corrected values (MMP-2 mRNA corrected for loading)” value with MMP-2 [2] (Control + Compound 1, 10 μM) was 0.30; in the test on MMP-2 [2] (setting [5]), 0.14. Also, the “MMP-2 (densitometer)” value in the test on MMP-2 [2] (Control + Compound 1, 10 μM) is reported as 38 Densitometer units; in the test on MMP-2 [2] (setting [5]) it was 31 Densitometer units. Moreover, the inhibition at 10 µM in the test with MMP-2 [2] (no bFGF, vs control, read-out: % Inhibition of native MMP-2 expression) turned out to be 86%; in the test on MMP-2 [2] (bFGF 10 ng/mL, vs bFGF, read-out: % Inhibition of MMP-2 expression in presence of bFGF), 62%; in the test on MMP-2 [3], 90%; in the test with HUVECs [4] (72 h, 3 days from seeding, P2<0.01), 25%; in the test with HUVECs [4] (120 h, 5 days from seeding, P2<0.005) it was 45%.

The IC50 is the point on the concentration scale where inhibition reaches its midpoint. Read a low IC50 as inhibition by little substance. What is called inhibition is the drop in the measured response relative to a control, in per cent.
